Data reported in patent US20230226027A1, “THIENOPYRIDINE DERIVATIVES FOR USE IN THE TREATMENT OF CORONAVIRUS INFECTION” (INSERM (INSTITUT NATIONAL DE LA SANTÉ ET DE LA RECHERCHE …, priority 2020, published 2023).
Like-named read-outs stand apart in the source and are kept apart here.

Tests used:
Calu-3 cells = experiment: Cellular viability assay (MTT) in Calu-3 cells; assay type: cell-based, human; details: 24 hours of treatment, MTT (FIG. 3)
Experimental: FIG. 3. Analysis of cellular viability in human lung epithelial Calu-3 cells treated with AM-001. Calu-3 cells treated for 24 hours with the indicated concentrations of AM-001. Cellular viability was measured with the Cell Proliferation Kit I (MTT) (Roche Applied Science, Indianapolis, IN) according to the manufacturer’s protocol.
Calu-3 cells were plated 48 hours before treatment in 96-wells plates at a density of 1.10^5 cells per well. After 24 hours of treatment with the different concentrations of AM-001, cells viability was measured using the Cell Proliferation Kit I (MTT) (Roche Applied Science, Indianapolis, IN) according to the manufacturer’s protocol.

SARS-CoV-2 [1] = assay type: cell-based; details: VeroE6 cells, 1 h pretreatment, MOI 0.001, viral RNA in supernatant 24 hours post-infection (FIG. 1)
SARS-CoV-2 [2] = assay type: cell-based; details: Calu-3 cells, 2 h pre-treatment, MOI 0.001, 24 hours post-infection (FIGS. 2A-2B)
SARS-CoV-2 [3] = assay type: cell-based; details: Calu-3 cells, concentration ≥ 10 µM, even when given 4 h post-infection, TCID50 24 hours post-infection (FIG. 4)

Nc1c(C(=O)Nc2ccc(F)cc2)sc2nc(-c3cccs3)cc(-c3ccccc3)c12 [AM-001]
cellular toxicity (Calu-3 cells): no detected cellular toxicity
replication of SARS-CoV-2 (SARS-CoV-2 [1]): Inhibition of SARS-CoV-2 replication
replication of SARS-CoV-2 (SARS-CoV-2 [1]; listed as AM001): significantly decreases the replication
SARS CoV-2 replication (viral RNA and infectious particles in supernatant) (SARS-CoV-2 [2]): inhibit SARS CoV-2 replication
infectious virus production (SARS-CoV-2 [3]): totally blocks infectious virus production
